“Also recorded” adds a separate entry of the source.
Assays:
[1] = system: VSMC; test: Resazurin conversion assay, PDGF-BB-induced VSMC proliferation; format: cell-based, rat; conditions: for IC50: VSMC
Description: (§1) VSMC were seeded in 96-well plates at 5 × 10^3 cells/well. After 24 h, cells were serum-starved for 24 h to render them quiescent. Quiescent cells were pretreated for 30 min with ginger extract, compounds, or vehicle (0.1% DMSO) as indicated, and subsequently stimulated for 48 h with PDGF-BB (20 ng/mL). To measure the number of metabolically active VSMC by resazurin conversion,[19], cells were washed with PBS and incubated in serum-free medium containing 10 μg/mL resazurin for 2 h. Total metabolic activity was measured by monitoring the increase in fluorescence at a wavelength of 590 nm using an excitation wavelength of 535 nm in a 96-well plate reader (Tecan GENios Pro). HUVECtert cells,[20] were seeded in 96-well plates at 5 × 10^3 cells/well. After 24 h, HUVECtert cells were treated with compounds or vehicle (0.1% DMSO) as indicated and incubated for 48 h. Then, cells were washed with PBS and incubated in culture medium containing 10 μg/mL resazurin for 2 h. The detection step is performed as described above.

[2] = system: VSMC; test: Crystal violet biomass staining, PDGF-BB-stimulated VSMC; format: cell-based; conditions: Rattus norvegicus, PDGF-BB 20 ng/mL, 48 h
Description: VSMC were seeded in 96-well plates at 5 × 10^3 cells/well. Twenty-four hours later, cells were serum starved for 24 h to render them quiescent. Quiescent cells were pretreated for 30 min with ginger extract, compounds, or vehicle (0.1% DMSO) as indicated and subsequently stimulated for 48 h with PDGF-BB (20 ng/mL). To determine the total biomass by crystal violet staining, cells were then incubated in 100 μL of crystal violet staining solution (0.5% crystal violet, 20% methanol) for 15 min and then washed with ddH2O. After drying, 100 μL EtOH/Na-citrate solution were added (EtOH: 0.1M Na-citrate = 1:1) and the absorbance of the samples was measured at 595 nm in a 96-well plate reader (Tecan sunrise).

[3] = system: VSMC; test: Assessment of cytotoxicity by LDH release; format: cell-based; conditions: PDGF-BB 20 ng/mL, 24 h, n.s. = no significant difference, up to stated concentration
Description: VSMC were seeded in 96-well plates at 5 × 10^3 cells/well. Twenty-four hours later, cells were serum starved for 24 h to render them quiescent. Quiescent cells were pretreated for 30 min with compounds, or vehicle (0.1% DMSO) as indicated, and subsequently stimulated for 24 h with PDGF-BB (20 ng/mL). Loss of cell membrane integrity as a sign for cell death can be quantified by the release of the soluble cytosolic protein lactate dehydrogenase (LDH),[23]. For this, the supernatant of the treated cells was assessed for LDH activity. For estimation of the total LDH, identically treated samples were incubated for 45 min in the presence of 1% Triton X-100. The released and total LDH enzyme activity was measured for 30 min at the dark in the presence of 4.5 mg/mL lactate, 0.56 mg/mL NAD+, 1.69 U/mL diaphorase, 0.004% w/v BSA, 0.15% w/v sucrose, and 0.5 mM 2-p-iodophenyl-3-nitrophenyl tetrazolium chloride. The enzyme reaction was stopped with 1.78 mg/mL oxymate and the absorbance was measured at 490 nm. Potential effects on cell viability were estimated as percentage of extracellular LDH enzyme activity. The cytotoxic natural product digitonin (100 μg/mL) was used as a positive control.

[4] = system: HUVECtert; test: Resazurin conversion assay in endothelial cells; format: cell-based, human; conditions: for Resazurin metabolic conversion in HUVECs (endothelial viability/proliferation): HUVECtert, 48 h, n.s. = no significant difference, up to stated concentration
Description: as §1, with “To measure the number of metabolically active VSMC by resazurin conversion,[19], cells were washed with PBS and incubated in serum-free medium containing 10 μg/mL resazurin for 2 h.” left out

[5] = system: VSMC; test: BrdU incorporation assay (de novo DNA synthesis); format: cell-based; conditions: Rattus norvegicus, PDGF-BB 20 ng/mL, read-out: Inhibition of PDGF-stimulated DNA synthesis, BrdU incorporation (IC50)
Description: VSMC were seeded in 96-well plates at 5 × 10^3 cells/well. Twenty-four hours later, cells were serum starved for 24 h to render them quiescent. Quiescent cells were pretreated for 30 min with compounds, or vehicle (0.1% DMSO) as indicated and subsequently stimulated with PDGF-BB (20 ng/mL). To estimate de novo DNA synthesis in VSMC [21],[22], BrdU was added 2 h after PDGF stimulation, and the incorporation amount was determined 22 h afterwards according to the manufacturer's instructions (Roche Diagnostics).

[6] = system: VSMC; test: Cell-cycle analysis by PI staining and flow cytometry; format: cell-based, rat; conditions: 10 μM, PDGF-BB 20 ng/mL 16 h, PI stained nuclei
Description: VSMC were seeded in 12-well plates at 1 × 10^4 cells/well. Twenty-four hours later, cells were serum starved for 24 h to render them quiescent. Quiescent cells were preincubated with [6]-shogaol (10 μM) or vehicle ([…]) for 30 min. PDGF-BB (20 ng/mL) was added, and 16 h later cells were trypsinized, washed once with PBS, and resuspended in a hypotonic propidium iodide (PI) solution containing 0.1% v/v Triton X-100, 0.1% w/v sodium citrate, and 50 μg/mL PI. After incubation at 4°C overnight, PI-stained nuclei were analyzed by flow cytometry (excitation 488 nm, emission 585 nm; FACScalibur; BD Biosciences, Germany).

[7] = system: HO-1; test: Immunoblot analysis of HO-1 expression in VSMC; format: cell-based, rat; conditions: 3 and 10 μM, PDGF-BB 20 h
Description: (§2) Cells (MEF or VSMC) were seeded onto six-well plates ((3–4) × 10^5 cells/well). Twenty-four hours later, MEF were treated with vehicle (0.1% DMSO) or [6]-shogaol at the indicated concentrations for 20 h; VSMC were serum starved for another 24 h, then quiescent cells were pretreated for 30 min with vehicle (0.1% DMSO) or [6]-shogaol as indicated and subsequently stimulated for 20 h with PDGF-BB (20 ng/mL). Then, cells were lysed and protein extracts were subjected to SDS-PAGE electrophoresis and immunoblot analysis as described,[22]. Proteins were visualized using enhanced chemiluminescence reagent and an LAS-3000 luminescent image analyzer (Fujifilm) with AIDA software (Raytest) for densitometric evaluation.

[8] = system: Nrf2/HO-1; test: Immunoblot analysis of HO-1 in WT and Nrf2-/- mouse embryonic fibroblasts; format: cell-based; conditions: 10 or 3 μM
Description: as §2

[9] = parameters: method as in PMID 19201263; conditions: rats, single oral administration of ginger oleoresin 300 mg/kg; ref [39]; cited from earlier work
[10] = Rattus norvegicus, 48 h, PDGF-BB 20 ng/mL, 48 h, read-out: Resazurin metabolic conversion (IC50)

## CCCCC[C@H](O)CC(=O)CCc1ccc(O)c(OC)c1 [[6]-Gingerol, [6]-gingerol]
[1]; [10]
  IC50: 13.2 µM
[2]
  IC50: 8.77 µM
[3]
  Cell death (LDH release): n.s. (up to 100 μM)
[4]
  Resazurin metabolic conversion in HUVECs (endothelial viability/proliferation): n.s. (up to 30 μM)

## CC(=O)O[C@H]1C(=O)[C@@]2(C)[C@H]([C@H](OC(=O)c3ccccc3)[C@]3(O)C[C@H](OC(=O)[C@H](O)[C@@H](NC(=O)c4ccccc4)c4ccccc4)C(C)=C1C3(C)C)[C@]1(OC(C)=O)CO[C@@H]1C[C@@H]2O [paclitaxel, reference compound]
[1]; Rattus norvegicus, data not shown, read-out: Anti-proliferative effect in VSMC (IC50)
  IC50: 0.108 µM
[4]; Homo sapiens, Endothelial cell, endothelial cells, data not shown, read-out: Anti-proliferative effect in endothelial cells (IC50)
  IC50: 0.004 µM

## CCCCCC=CC(=O)CCc1ccc(O)c(OC)c1 [[6]-Shogaol, [6]-shogaol]
[1]; [10]
  IC50: 2.7 µM
[1]; PDGF-BB 20 ng/mL, 48 h, read-out: Resazurin metabolic conversion (IC50)
  IC50: 2.72 µM
[1]; [6]-shogaol 3 μM, SnPP 10 μM pretreatment 1 h, resazurin conversion
  Antiproliferative effect in the presence of HO-1 inhibitor tin protoporphyrin IX: lost its antiproliferative activity; also recorded: loses its antiproliferative influence on VSMC
[2]
  IC50: 1.13 µM
[3]
  Cell death (LDH release): n.s. (up to 10 μM)
[3]; listed as [6]-shogaol
  Cell death (LDH release): did not exhibit cytotoxicity toward VSMC
[4]
  Resazurin metabolic conversion in HUVECs (endothelial viability/proliferation): n.s. (up to 10 μM)
[4]; listed as [6]-shogaol
  Resazurin metabolic conversion in HUVECs (endothelial viability/proliferation): did not interfere with endothelial cell proliferation; also recorded: did obviously not impair endothelial viability and proliferation
[5]
  IC50: 3 µM
[6]
  Cell-cycle distribution: counteracted the PDGF-induced transition of VSMC from the G0/G1 cell-cycle phase to the G2/M phase
[7]
  HO-1 levels compared to vehicle treated cells: significantly elevated HO-1 levels
[8]
  HO-1 induction in WT vs Nrf2-/- fibroblasts: strictly Nrf2-dependent increase of HO-1
[9]
  Peak plasma concentration: 0.11 µg/L
  Peak plasma concentration (converted): 0.40 µM

## CCCCCCCC(O)CCc1ccc(O)c(OC)c1 (racemic) [rac-[6]-Dihydroparadol, rac-[6]-dihydroparadol]
[1]; [10]
  IC50: 10 µM
[2]
  IC50: 4.11 µM
[3]
  Cell death (LDH release): n.s. (up to 30 μM)
[4]
  Resazurin metabolic conversion in HUVECs (endothelial viability/proliferation): n.s. (up to 30 μM)

## COc1cc(CCC(C)=O)ccc1O [Zingerone, zingerone]
[1]; [10]
  IC50: > 100 µM

## CCCCCCCC(=O)CCc1ccc(O)c(OC)c1 [[6]-Paradol, [6]-paradol]
[1]; [10]
  IC50: 5.3 µM
[2]
  IC50: 3.34 µM
[3]
  Cell death (LDH release): n.s. (up to 30 μM)
[4]
  Resazurin metabolic conversion in HUVECs (endothelial viability/proliferation): n.s. (up to 30 μM)

From PMC4573514, “Identification and characterization of [6]-shogaol from ginger as inhibitor of vascular smooth muscle cell proliferation” (Molecular Nutrition & Food Research, 2015)
